Data set [1] concerns the target T1, Prostaglandin G/H synthase 1 (Ovis aries) (UniProt P05979).
T1 sequence (whole entry): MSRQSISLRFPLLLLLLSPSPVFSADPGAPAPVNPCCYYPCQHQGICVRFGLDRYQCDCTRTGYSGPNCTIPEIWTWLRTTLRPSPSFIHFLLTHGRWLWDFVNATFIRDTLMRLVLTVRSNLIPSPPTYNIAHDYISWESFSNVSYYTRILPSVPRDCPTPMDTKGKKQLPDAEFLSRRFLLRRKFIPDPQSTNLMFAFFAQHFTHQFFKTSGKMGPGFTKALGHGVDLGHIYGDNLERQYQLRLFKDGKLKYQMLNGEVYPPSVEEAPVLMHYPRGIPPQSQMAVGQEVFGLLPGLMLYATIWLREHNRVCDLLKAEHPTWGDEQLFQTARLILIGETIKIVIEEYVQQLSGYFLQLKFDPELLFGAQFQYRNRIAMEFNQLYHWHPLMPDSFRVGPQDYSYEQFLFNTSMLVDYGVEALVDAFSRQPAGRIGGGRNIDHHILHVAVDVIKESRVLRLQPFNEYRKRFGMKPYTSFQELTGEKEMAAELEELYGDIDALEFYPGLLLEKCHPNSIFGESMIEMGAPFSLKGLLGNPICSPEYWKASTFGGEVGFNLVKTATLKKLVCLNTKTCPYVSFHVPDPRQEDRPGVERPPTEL
The data set can be described thus: Inhibition of ovine COX-1 assessed as production of PGE2 using arachidonic acid as a substrate preincubated for 60 mins at 100 uM followed by substrate addition and measured after 2 mins by ELISA analysis relative to control. The conditions noted are these: time 62.0 min. In general terms: In an ELISA, binding on a coated surface is turned into a signal by an enzyme label.

Data set [2] has as its target T1, Prostaglandin G/H synthase 1 (Ovis aries). Briefly: Inhibition of ovine COX-1 assessed as production of PGE2 using arachidonic acid as a substrate preincubated for 60 mins at 10 uM followed by substrate addition and measured after 2 mins by ELISA analysis relative to control.
Data set [3] shares this target. Briefly: Inhibition of ovine COX-1 assessed as production of PGE2 using arachidonic acid as a substrate preincubated for 60 mins at 1 uM followed by substrate addition and measured after 2 mins by ELISA analysis relative to control.
For data set [4] the target is unchanged. Briefly: Inhibition of ovine COX-1 assessed as production of PGE2 using arachidonic acid as a substrate preincubated for 60 mins at 0.1 uM followed by substrate addition and measured after 2 mins by ELISA analysis relative to control.
For data set [5], the target named is T2, Prostaglandin G/H synthase 2 (Homo sapiens, UniProt P35354).
T2 sequence (P35354 whole entry): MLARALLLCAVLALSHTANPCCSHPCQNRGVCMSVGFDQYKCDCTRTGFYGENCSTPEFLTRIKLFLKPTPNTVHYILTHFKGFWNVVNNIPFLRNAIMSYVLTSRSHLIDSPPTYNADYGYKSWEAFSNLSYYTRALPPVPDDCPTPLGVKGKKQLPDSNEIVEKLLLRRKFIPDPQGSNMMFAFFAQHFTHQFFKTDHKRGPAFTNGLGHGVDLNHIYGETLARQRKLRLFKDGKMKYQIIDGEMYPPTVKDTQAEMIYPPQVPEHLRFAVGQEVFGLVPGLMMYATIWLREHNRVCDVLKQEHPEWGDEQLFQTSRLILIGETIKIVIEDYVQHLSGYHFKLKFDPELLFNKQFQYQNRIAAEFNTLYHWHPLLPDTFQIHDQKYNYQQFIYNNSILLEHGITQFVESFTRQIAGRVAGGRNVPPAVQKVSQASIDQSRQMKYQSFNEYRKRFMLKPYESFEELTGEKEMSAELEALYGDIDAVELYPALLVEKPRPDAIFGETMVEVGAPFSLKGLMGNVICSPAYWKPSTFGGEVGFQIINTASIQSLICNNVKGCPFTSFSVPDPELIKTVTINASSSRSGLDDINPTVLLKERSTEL
The data set can be described thus: Inhibition of human recombinant COX-2 assessed as production of PGE2 using arachidonic acid as a substrate preincubated for 60 mins followed by substrate addition and measured after 2 mins by ELISA analysis.

Data set [6] has as its target T3, Prostaglandin G/H synthase 1 (Ovis aries, UniProt P05979).
T3 sequence (P05979 whole entry): T1 sequence (whole entry)
Briefly: Inhibition of ovine COX-1 assessed as production of PGE2 using arachidonic acid as a substrate preincubated for 60 mins followed by substrate addition and measured after 2 mins by ELISA analysis.

Data set [7] can be described thus: Selectivity index, ratio of IC50 for ovine COX-1 to IC50 for human COX-2.
The nature of data set [8]: Solubility of the compound in water. It is filed as physicochemical. Particulars: buffer.
Data set [9] deals with Mus musculus. Briefly: Antiinflammatory activity in mouse xylene induced ear edema model assessed as ear weight difference at 30 mg/kg, po once daily administered for 3 days prior to xylene stimulation and measured after 30 mins (reference value: 13.64 =/- 2.55 mg). It is filed as functional. The conditions noted are these: time 3 day.
For data set [10], the system named is Mus musculus. The data set can be described thus: Antiinflammatory activity in mouse xylene induced ear edema model assessed as inhibition of auricular edemas at 30 mg/kg, po once daily administered for 3 days prior to xylene stimulation and measured after 30 mins relative to control. It is filed as functional. The conditions noted are these: 72 h, time 3 day.

Data set [11] has as its system Mus musculus. The data set can be described thus: Analgesic activity in mouse model of acetic-acid induced writhing assessed as number of writhes at 30 mg/kg, po once daily administered for 3 days prior to acetic acid injection measured after 20 mins (reference value: 29.13+/-9.36). It is filed as functional. The conditions noted are these: time 3 day. In general terms: In writhing tests, fewer writhes than in controls are read as antinociception.

The test system of data set [12] is Mus musculus. The data set can be described thus: Analgesic activity in mouse model of acetic-acid induced writhing assessed as inhibition of writhing at 30 mg/kg, po once daily administered for 3 days prior to acetic acid injection measured after 20 mins relative to control. It is filed as functional. Particulars: 72 h, time 3 day.

Some results are limits rather than exact numbers.

Regarding `Cc1cc(-c2ccccc2Cl)nn1S(=O)(=O)Oc1ccccc1`, the inhibition – broadly, the relative decrease from the control value, in per cent – was 60% in data set [1], 55% in data set [2], 55% in data set [3] and 61% in data set [4].

For the compound `Cc1cc(-c2ccc(Br)cc2)nn1S(=O)(=O)Oc1ccccc1`, the half-maximal inhibitory concentration (IC50) – broadly, the point on the concentration scale where inhibition reaches its midpoint – is 0.2 µM in data set [5] and 0.14 µM in data set [6]. Moreover, the inhibition in data set [1] was 70%; in data set [2], 71%; in data set [3], 68%; in [4] it was 45%. The Ratio in data set [7] came to 1.

For `Cc1cc(-c2cccc(Cl)c2)nn1S(=O)(=O)Oc1ccccc1`, the IC50 in data set [5] stood at 0.11 µM. Further, the inhibition in [1] was found to be 14%; in [2] it was 5%; in data set [3], 17%; in data set [4] it was 8%. Also, the solubility entry in data set [8] was “Insoluble”. Also, the Activity in the data set with Mus musculus [9] is given as 8.18 mg; in the data set on Mus musculus [11], 23.63. For the same compound, the inhibition in vivo (as a rule, the percentage by which the read-out fell short of the control) at 30 mg/kg in the data set with Mus musculus [10] stood at 10%; in the data set with Mus musculus [12] it was 18.9%.

With `Cc1cc(-c2ccc(Cl)cc2)nn1S(=O)(=O)Oc1ccccc1`, the inhibition in data set [1] was 43%; in [2], 20%; in data set [3], 18%; in data set [4], 16%. Further, the IC50 in [6] was more than 100 µM.

In the case of `CC(COCCOCCOCCOCCOCCOCCOCCOCCOCCOCCOCCOCCOCCOCCOCCOCCOCCOCCOCCOCCOCCOCCOCCOCCOCCOCCOCCOCCOCCOCCOCCOCCOCCOCCOCCOCCOCCOCCO)OCC(C)OCC(C)OCC(C)OCC(C)OCC(C)OCC(C)OCC(C)OCC(C)OCC(C)OCC(C)OCC(C)OCC(C)OCC(C)OCC(C)OCC(C)OCC(C)OCC(C)OCC(C)OCC(C)OCC(C)OCC(C)OCC(C)OCC(C)OCC(C)OCC(C)OCC(C)OCC(C)OCC(C)OCC(C)OCCOCCOCCOCCOCCOCCOCCOCCOCCOCCOCCOCCOCCOCCOCCOCCOCCOCCOCCOCCOCCOCCOCCOCCOCCOCCOCCOCCOCCOCCOCCOCCOCCOCCOCCOCCOCCOCCO` (configuration not stated), the solubility entry in [8] is listed as “Insoluble”. The values for the Activity in the data set on Mus musculus [9] and in the data set on Mus musculus [11] were 13.64 mg and 29.13, respectively. In addition, the inhibition in vivo at 30 mg/kg with Mus musculus [10] and in the data set with Mus musculus [12] was 0% throughout.

Turning to `Cc1ccc(-c2cc(C)n(S(=O)(=O)Oc3ccc(C)c(C)c3)n2)cc1`, the inhibition came to 30% in data set [1], 31% in data set [2], 30% in data set [3] and 18% in data set [4]. The IC50 in [6] is more than 100 µM.

Take `Cc1cc(-c2ccco2)nn1S(=O)(=O)Oc1ccccc1`: the IC50 in data set [5] was 0.031 µM. For the same compound, the inhibition in data set [4] was 47%. In addition, the solubility result in [8] was “Insoluble”. In addition, the Activity in the data set on Mus musculus [9] stood at 11.93 mg; in the data set on Mus musculus [11], 16.75. Moreover, the inhibition in vivo at 30 mg/kg in the data set with Mus musculus [10] is 12.5%; in the data set with Mus musculus [12], 42.5%.

As for `Cc1ccc(-c2cc(-c3ccccc3)n(S(=O)(=O)Oc3ccccc3)n2)cc1`, the inhibition in [1] is 6%; in [2], 1%; in data set [3], -3%; in data set [4], 10%.

As for `Cc1cc(-c2ccccn2)nn1S(=O)(=O)Oc1ccccc1`, the IC50 in data set [5] was 0.1 µM. Also, the inhibition in data set [1] is 29%; in data set [2], 29%; in data set [3], 39%; in data set [4] it was 25%. Also, the solubility entry in data set [8] is recorded as “Insoluble”. The values for the Activity in the data set with Mus musculus [9] and with Mus musculus [11] were 12.1 mg and 24.75, respectively. The inhibition in vivo at 30 mg/kg in the data set on Mus musculus [10] is 11.3%; in the data set on Mus musculus [12], 15%.

Regarding `Cc1ccccc1-c1cc(C)n(S(=O)(=O)Oc2ccccc2)n1`, the IC50 in data set [5] was 11.1 µM. For the same compound, the inhibition was found to be 42% in [1], 55% in data set [2], 63% in data set [3] and 65% in data set [4].

In the case of `Cc1ccc(-c2cc(C(C)C)n(S(=O)(=O)Oc3ccccc3)n2)cc1`, the inhibition in [1] stood at 21%; in data set [2], 47%; in [3], 39%; in data set [4], 20%. The IC50 in data set [6] came to 18.1 µM.

For the compound `Cc1cc(-c2ccc3ccccc3c2)nn1S(=O)(=O)Oc1ccccc1`, the inhibition in [1] turned out to be 27%; in data set [2], 13%; in data set [3], 7%; in data set [4], 4%.

As to `Cc1cccc(-c2cc(C)n(S(=O)(=O)Oc3ccccc3)n2)c1`, the inhibition in data set [1] is 53%; in [2], 33%. The IC50 in [6] came to 72.3 µM. The solubility entry in [8] is recorded as “Insoluble”. Moreover, the Activity was determined as 12.46 mg with Mus musculus [9] and 16.38 in the data set with Mus musculus [11]. Also, the inhibition in vivo at 30 mg/kg in the data set with Mus musculus [10] was determined as 8.7%; in the data set with Mus musculus [12], 43.8%.

As for `CCc1ccc(-c2cc(C)n(S(=O)(=O)Oc3ccccc3)n2)cc1`, the inhibition in data set [3] is -1%; in [4], 11%. Also, the solubility entry in data set [8] is “Insoluble”. Further, the Activity was determined as 10.76 mg in the data set on Mus musculus [9] and 15.13 with Mus musculus [11]. Besides, the inhibition in vivo at 30 mg/kg in the data set on Mus musculus [10] amounted to 21.1%; in the data set with Mus musculus [12], 48.1%.

`Cc1cc(-c2cccs2)nn1S(=O)(=O)Oc1ccccc1`: the inhibition is 38% in data set [1], 33% in [2], 24% in data set [3] and 18% in data set [4]. For the same compound, the IC50 in [6] was more than 100 µM.

As to `Cc1cc(-c2cccnc2)nn1S(=O)(=O)Oc1ccccc1`, the inhibition in data set [1] came out at 34%; in data set [2], 24%; in data set [3], 23%; in [4] it was 19%.

On to `Cc1cc(-c2ccncc2)nn1S(=O)(=O)Oc1ccccc1`, for which the inhibition in data set [1] amounted to 61%; in [2], 43%; in [3], 40%; in [4], 36%.

As for `COc1ccc(-c2cc(C)n(S(=O)(=O)Oc3ccccc3)n2)cc1`, the inhibition in [1] worked out at 30%; in [2], 29%; in data set [3], 21%; in data set [4] it was 19%. Also, the half-inhibitory concentration (IC50) in [6] was more than 100 µM.

For `Cc1cc(-c2ccc(C(F)(F)F)cc2)nn1S(=O)(=O)Oc1ccccc1`, the IC50 in data set [5] is less than 0.01 µM. Further, the inhibition was determined as 22% in [1], 18% in data set [2], 32% in data set [3] and 33% in [4]. Further, the solubility result in data set [8] is “Insoluble”. The Activity is on record as 8.75 mg in the data set on Mus musculus [9] and 21.63 with Mus musculus [11]. Besides, the inhibition in vivo at 30 mg/kg in the data set on Mus musculus [10] came to 35.9%; in the data set with Mus musculus [12], 25.8%.

For the compound `Cc1cc(-c2ccc(F)cc2)nn1S(=O)(=O)Oc1ccccc1`, in data set [5], the IC50 is more than 10 µM. Further, the inhibition in data set [1] was -2%.

Take `Cc1cc(-c2ccccc2)nn1S(=O)(=O)Oc1ccccc1C(F)(F)F`: in [5], the IC50 is more than 100 µM.
